{"source": "patent EP3408309B1", "about": "(priority 2016, dated 2017)", "key": {"Influenza neuraminidase": {"target": "Influenza neuraminidase", "details": "competitive inhibitors, background statement; cited from earlier work"}, "X31": {"system": "X31", "assay": "Infection inhibition experiment with X31 in BALB/c mice", "assay_type": "in vivo", "details": "X31 pretreated with inhibitor, intranasal application; loss in body weight over 11 days", "method": "Figure 7A and 7B show the results of an infection inhibition experiment with X31 in BALB/c mice. X31 was pretreated with inhibitor at the indicated concentrations, followed by intranasal application of the mixture to sedated mice.\nIn the experiments, the results of which are depicted in Figure 7A, the infection-related loss in body weight was daily controlled for 11 days. IPGSA 3 at 5 mM and 1 mM sialic acid concentrations was compared to infected/untreated, uninfected/untreated or infected/control treated (linPGOH 1) cases. The effect of a cytokine storm related loss in body weight was controled by using UV inactivated X31, which was not infectious, but still able to hemagglutinate as the untreated virus. Error bars indicate the standard error of the mean (n≥5).\nError bars indicate the standard error of the mean (n≥5)."}, "[1]": {"system": "influenza A virus (X-31, H3N2)", "assay": "Hemagglutination inhibition (HAI) assay", "assay_type": "cell-based"}, "[2]": {"system": "fluorescently labeled X31", "assay": "Microscale thermophoresis binding to whole virus particles", "design": "species or system influenza strain A/Aichi/2/68 H3N2", "details": "apparent dissociation constant, one site binding fit; read-out: Kdapp Particle", "text": "The examined IPGSAs show one binding step. Binding constants are described as apparent dissociation constants (Kdapp) derived from a one site binding fit of each binding step. Error bars indicate the standard error of the mean (n≥3)."}}, "data": [{"smiles": "CC(=O)N[C@H]1[C@H]([C@H](O)[C@H](O)CO)OC(C(=O)O)=C[C@@H]1N=C(N)N", "note": "[Relenza, Zanamivir]", "values": [{"measurement": "IC50 values, enzyme inhibition", "setting": "Influenza neuraminidase", "result": "low"}]}, {"smiles": "CCOC(=O)C1=C[C@@H](OC(CC)CC)[C@H](NC(C)=O)[C@@H](N)C1", "note": "[Tamiflu, Oseltamivir]", "values": [{"measurement": "IC50 values, enzyme inhibition", "setting": "Influenza neuraminidase", "result": "low"}, {"measurement": "infection inhibition in vivo", "setting": "X31", "result": "not able to cause potent infection inhibition"}]}, {"smiles": "CC(=O)N[C@H]1[C@H]([C@H](O)[C@H](O)CO)O[C@@](OC[C@H]2O[C@@H](O[C@H]3[C@H](O)[C@@H](O)C(O)O[C@@H]3CO)[C@H](O)[C@@H](O)[C@H]2O)(C(=O)O)C[C@@H]1O", "note": "(stereo partly drawn) [α-2,6-sialyllactose]", "values": [{"measurement": "Enhancement factor (β)", "setting": "[1]; inhibition potency compared to monomeric α-2,6-sialyllactose", "result": 1}, {"measurement": "Ki", "setting": "[1]; sialic acid concentration, 4 HAU X31, lowest concentration for 100% inhibition, * = maximum tested concentration, read-out: Ki(HAI) SA", "result": "48.1 ± 1.41", "unit": "mM"}, {"measurement": "Kd", "setting": "[2]", "result": 2.5, "unit": "mM"}]}]}
